Measurements from patent US20100105103A1, “ALCOHOL TOLERANT ESCHERICHIA COLI AND METHODS OF PREPARATION THEREOF” (NATIONAL TAIWAN UNIVERSITY, priority 2008, published 2010).

Legend:
[1] = tested on: E. coli JH007 (ydhF- mutant overexpressing PhoH); assay: Growth curve of JH007 strain with various concentrations of alcohols (OD595); type: cell-based, Escherichia coli; settings: for alcohol concentration at which growth of JH007 was inhibited: JH007, IPTG-induced, LB medium, 37° C., OD595
Method: (§1) After 2 h of induction, the cultures were diluted to 0.35 OD595 in a fresh LB medium supplemented with kanamycin and 50 μg/ml of chloraphenicol, with the addition of 0-18% ethanol, 0-5% 1-propanol, 0-5% iso-propanol, 0-7% 1-butanol, and 0-7% iso-butanol in triplicate.
Referring to FIG. 7, cell growth condition of JH007 strain was monitored with OD595 with the changes of cell turbidities.

[2] = tested on: E. coli JH016 (potG- mutant overexpressing Hmp); assay: Growth curve of JH016 strain with various concentrations of alcohols (OD595); type: cell-based, Escherichia coli; settings: for alcohol concentration at which growth of JH016 was inhibited: JH016, OD595
Method: as §1
(§2) Growth of JH016 was inhibited by 1-butanol at concentrations at least 2.5% (v/v), isobutanol at least 4%, 1-propanol at least 5%, isopropanol at least 5%, or ethanol at least 10%. And the growth of JH017 was inhibited by 1-butanol at concentrations at least 2% (v/v), isobutanol at least 3.5%, 1-propanol at least 5%, isopropanol at least 5%, or ethanol at least 12%. The abovementioned concentration of alcohol would for sure inhibit the growth of wild type E. coli.

[3] = tested on: E. coli JH017 (potG- mutant overexpressing YqhD); assay: Growth curve of JH017 strain with various concentrations of alcohols (OD595); type: cell-based, Escherichia coli
Method: as §1, §2

[4] = tested on: E. coli wild-type strain BW25113; settings: wild type E. coli BW25113, LB medium, OD600
Method: E. coli wild-type strain BW25113 was cultured overnight and then inoculated into a fresh LB medium containing 0-10% (v/v) of 1-butanol. Cells were cultivated with shaking and the optical density at 600 nm was measured every 15 minutes.

[5] = tested on: E. coli JH007; settings: JH007, 2% v/v 1-butanol, 4 h, IPTG-induced vs uninduced
Method: These 18 strains were cultivated overnight then inoculated into LB media supplemented with 30 μg/ml of kanamycin and 50 μg/ml of chloraphenicol. IPTG were added into the media at the final concentration of 0.1 mM. […] Cells were incubated at 37° C. with shaking and the optical density was measured at the beginning and after 4 h. The survival rates were calculated using the following formula.
Survival rate=difference of OD595 between mutants with IPTG induced (4 h-0 h)/difference of OD595 between mutants without IPTG induced (4 h-0 h)×100%

[6] = tested on: wild type E. coli; settings: conventional fermentation process; cited from earlier work

Row | Compound | alcohol concentration at which growth of JH007 was inhibited [1] | alcohol concentration at which growth of JH016 was inhibited [2] | alcohol concentration at which growth of JH017 was inhibited [3] | tolerance of ethanol concentration (up to) ([2]; JH016) | concentration of 1-butanol at which growth was almost completely inhibited [4] | tolerance of 1-butanol concentration (up to) ([1]; JH007) | 1-butanol tolerance (survival rate) relative to control [5] | concentration of 1-butanol at which growth was inhibited [6]
1 | CC(C)CO [isobutanol] | at least 3.5 % (v/v) | at least 4 % (v/v) | at least 3.5 % (v/v) |  |  |  |  | 
2 | CCO [ethanol] |  | at least 10 % (v/v) | at least 12 % (v/v) | up to 12 % (v/v) |  |  |  | 
3 | 1-butanol | at least 5 % (v/v) | at least 2.5 % (v/v) | at least 2 % (v/v) |  | ≥ 1.5 % (v/v) | up to 5 % (v/v) | 5.5 fold | 1%
4 | CCCO [1-propanol] | at least 6 % (v/v) |  |  |  |  |  |  | 
